According to patent publication US20260347353A1, “INDOLIZINE DERIVATIVES FOR TREATING CANCER” (Antares Therapeutics, Inc., priority 2022, published 2026):

Key:
[1] = tested on: NCIH1299-inducible p53 Y220C cells; assay: Cell Proliferation Assay (CellTiter-Glo), NCIH1299-inducible p53 Y220C; type: cell-based; conditions: Homo sapiens, NCI-H1299, 120 h, 5 days, read-out: CTG H1299 P53 Y220C IC50
Method: Inducible p53 Y220C and R273H constructs (Tet-One inducible expression system; Takara) were stably expressed in NCIH1299 cells by lentiviral transduction. NUGC3, A549, BxPC3, T3M4, HuH7, HCC2935, MFE296, NCIH1299, NCIH1299-inducible p53 Y220C, and NCIH1299-inducible p53 R273H cell lines were used for cell proliferation assay. 250-500 cells were seeded in each well of 384 plate and then compounds were dispensed into each well using Echo or Tecan. After 5 days of incubation, equal volume of CellTiter-Glo reagent (G7570; Promega) was added into each well and the plate was incubated at room temperature for 10 minutes with shaking. The luminescent signal was measured by PheraStar microplate reader and IC50 was calculated.

[2] = tested on: NUGC3 cells (p53 Y220C); assay: Cell Proliferation Assay (CellTiter-Glo), NUGC3 p53 Y220C; type: cell-based; conditions: Homo sapiens, NUGC-3, 120 h, 5 days, read-out: CTG NUGC3 P53 Y220C IC50
Summary of the method: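 Seeded at 250–500 cells/well, then compound-treated for 5 days; the NCIH1299 lines carry Tet-One inducible p53 Y220C or R273H transduced lentivirally. Viability by CellTiter-Glo luminescence after 10 min at room temperature; IC50 calculated.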

[3] = target: p53 Y220C (Homo sapiens, UniProt P04637, Y220C); assay: Luciferase Reporter Assay, p53 Y220C (NCIH1299 cells with inducible p53 Y220C and p53 response element-luciferase); type: cell-based; conditions: 6 hour compound treatment, read-out: Luc P53 Y220C AC50
Summary of the method: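 NCI-H1299 cells stably carrying a p53 response element-luciferase reporter and Tet-inducible p53 Y220C were induced with 0.5 ug/mL doxycycline for 24 h, then treated with compound for 6 h. Luminescence was read after One-Glo addition. AC50 was derived relative to 10 uM tool compound as positive control.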

[4] = target: T1, p53 Y220C mutant protein (amino acid residues 94-293) (Homo sapiens, UniProt P04637, Y220C); assay: Surface Plasmon Resonance (SPR) assay, p53 Y220C Kd_kinetic; conditions: multi-cycle kinetics, 16 or 20 °C, pH 7.5, 1:1 binding model
T1 construct: p53 Y220C mutant protein (amino acid residues 94-293)
T1 sequence (P04637 94-293, stated change not applied): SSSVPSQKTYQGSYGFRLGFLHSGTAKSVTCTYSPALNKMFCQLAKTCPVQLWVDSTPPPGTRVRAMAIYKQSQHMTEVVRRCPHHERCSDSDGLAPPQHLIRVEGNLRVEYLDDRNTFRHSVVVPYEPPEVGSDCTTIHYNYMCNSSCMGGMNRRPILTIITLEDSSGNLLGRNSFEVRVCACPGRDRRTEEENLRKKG
Summary of the method: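 Kd from multi-cycle SPR kinetics fitted to a 1:1 model, using 2-fold, 7-point compound series over p53 Y220C (residues 94-293). Flow 30 μL/min, 60 s association, 120 s dissociation, at 16 or 20 °C in 50 mM Tris pH 7.5, 100 mM NaCl, 1 mM DTT, 0.01% Brij35, 0.05% Tween-20, 1% DMSO.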

Row | Structure (SMILES) | IC50 [1] [nM] | IC50 [2] [nM] | AC50 [3] [nM] | Kd [4] [nM]
1 | Cc1ccsc1C(=O)NCc1nc(-c2cc3c(N[C@@H]4CCN(C)C[C@@H]4F)cccn3c2SC(F)(F)F)no1 [Example 30, N-{[3-(8-{[(3S,4R)-3-fluoro-1-methylpiperidin-4-yl]amino}-3-[(trifluoromethyl)sulfanyl]indolizin-2-yl)-1,2,4-oxadiazol-5-yl]methyl}-3-methylthiophene-2-carboxamide] | 1500 to 3000 | 1500 to 3000 | 750 to 1500 | 10 to 100
2 | CN1CC[C@@H](Nc2cccn3c(SC(F)(F)F)c(-c4noc(CNC(=O)[C@H]5COCCO5)n4)cc23)[C@@H](F)C1 [Example 29] | 750 to 1500 | 750 to 1500 | 750 to 1500 | < 10
3 | CN1CC[C@@H](Nc2cccn3c(SC(F)(F)F)c(-c4noc(CNC(=O)COc5ccc(C#N)cc5)n4)cc23)[C@@H](F)C1 [Example 43, 2-(4-cyanophenoxy)-N-{[3-(8-{[(3S,4R)-3-fluoro-1-methylpiperidin-4-yl]amino}-3-[(trifluoromethyl)sulfanyl]indolizin-2-yl)-1,2,4-oxadiazol-5-yl]methyl}acetamide] | 750 to 1500 | 750 to 1500 | 750 to 1500 | 10 to 100
4 | CN1CC[C@@H](Nc2cccn3c(SC(F)(F)F)c(-c4noc(CNC(=O)c5ccc6c(c5)C(C)(C)C(=O)N6)n4)cc23)[C@@H](F)C1 [Example 15, N-{[3-(8-{[(3S,4R)-3-fluoro-1-methylpiperidin-4-yl]amino}-3-[(trifluoromethyl)sulfanyl]indolizin-2-yl)-1,2,4-oxadiazol-5-yl]methyl}-3,3-dimethyl-2-oxo-1H-indole-5-carboxamide] | < 750 | < 750 | < 750 | < 10
5 | CN1CC[C@@H](Nc2cccn3c(SC(F)(F)F)c(-c4noc(CNC(=O)c5ccns5)n4)cc23)[C@@H](F)C1 [Example 27, N-{[3-(8-{[(3S,4R)-3-fluoro-1-methylpiperidin-4-yl]amino}-3-[(trifluoromethyl)sulfanyl]indolizin-2-yl)-1,2,4-oxadiazol-5-yl]methyl}-1,2-thiazole-5-carboxamide] | 750 to 1500 | < 750 | < 750 | < 10
6 | C[C@@H](NC(=O)C1CC1)c1nc(-c2cc3c(N[C@@H]4CCN(C)C[C@@H]4F)cccn3c2SC(F)(F)F)no1 (relative stereo) [Example 51, N-[(1R*)-1-[3-(8-{[(3S,4R)-3-fluoro-1-methylpiperidin-4-yl]amino}-3-[(trifluoromethyl)sulfanyl]indolizin-2-yl)-1,2,4-oxadiazol-5-yl]ethyl]cyclopropanecarboxamide] | ≥ 3000 | ≥ 3000 | ≥ 3000 | 10 to 100
7 | CN1CC[C@@H](Nc2cccn3c(SC(F)(F)F)c(-c4noc(CNC(=O)c5cc(C#N)cs5)n4)cc23)[C@@H](F)C1 [Example 38, 4-cyano-N-{[3-(8-{[(3S,4R)-3-fluoro-1-methylpiperidin-4-yl]amino}-3-[(trifluoromethyl)sulfanyl]indolizin-2-yl)-1,2,4-oxadiazol-5-yl]methyl}thiophene-2-carboxamide] | < 750 | < 750 | 750 to 1500 | 10 to 100
8 | CN1CC[C@@H](Nc2cccn3c(SC(F)(F)F)c(-c4noc(CNC(=O)c5ccc(C#N)s5)n4)cc23)[C@@H](F)C1 [Example 39, 5-cyano-N-{[3-(8-{[(3S,4R)-3-fluoro-1-methylpiperidin-4-yl]amino}-3-[(trifluoromethyl)sulfanyl]indolizin-2-yl)-1,2,4-oxadiazol-5-yl]methyl}thiophene-2-carboxamide] | < 750 | < 750 | 750 to 1500 | 10 to 100
9 | CN1CC[C@@H](Nc2cccn3c(SC(F)(F)F)c(-c4noc(CNC(=O)N5CCOCC5)n4)cc23)[C@@H](F)C1 [Example 67, N-{[3-(8-{[(3S,4R)-3-fluoro-1-methylpiperidin-4-yl]amino}-3-[(trifluoromethyl)sulfanyl]indolizin-2-yl)-1,2,4-oxadiazol-5-yl]methyl}morpholine-4-carboxamide] | 750 to 1500 | 1500 to 3000 | 750 to 1500 | < 10
10 | CN1CC[C@@H](Nc2cccn3c(SC(F)(F)F)c(-c4noc(CNC(=O)c5ccc6c(c5)NC(=O)C6)n4)cc23)[C@@H](F)C1 [Example 16, N-{[3-(8-{[(3S,4R)-3-fluoro-1-methylpiperidin-4-yl]amino}-3-[(trifluoromethyl)sulfanyl]indolizin-2-yl)-1,2,4-oxadiazol-5-yl]methyl}-2-oxo-1,3-dihydroindole-6-carboxamide] | 750 to 1500 | < 750 | 750 to 1500 | < 10
11 | CN1CC[C@@H](Nc2cccn3c(SC(F)(F)F)c(-c4noc(CNC(=O)c5sccc5F)n4)cc23)[C@@H](F)C1 [Example 32, 3-fluoro-N-{[3-(8-{[(3S,4R)-3-fluoro-1-methylpiperidin-4-yl]amino}-3-[(trifluoromethyl)sulfanyl]indolizin-2-yl)-1,2,4-oxadiazol-5-yl]methyl}thiophene-2-carboxamide] | < 750 | < 750 | < 750 | < 10
12 | C[C@H](O)CC(=O)NCc1nc(-c2cc3c(N[C@@H]4CCN(C)C[C@@H]4F)cccn3c2SC(F)(F)F)no1 [Example 64, (3S)—N-{[3-(8-{[(3S,4R)-3-fluoro-1-methylpiperidin-4-yl]amino}-3-[(trifluoromethyl)sulfanyl]indolizin-2-yl)-1,2,4-oxadiazol-5-yl]methyl}-3-hydroxybutanamide] | ≥ 3000 | ≥ 3000 | ≥ 3000 | 10 to 100
13 | CN1CC[C@@H](Nc2cccn3c(SC(F)(F)F)c(-c4noc(CNC(=O)C56CC(NC(=O)OC(C)(C)C)(C5)C6)n4)cc23)[C@@H](F)C1 [Example 45, tert-butyl N-[3-({[3-(8-{[(3S,4R)-3-fluoro-1-methylpiperidin-4-yl]amino}-3-[(trifluoromethyl)sulfanyl]indolizin-2-yl)-1,2,4-oxadiazol-5-yl]methyl}carbamoyl)bicyclo[1.1.1]pentan-1-yl]carbamate] | ≥ 3000 | 1500 to 3000 | ≥ 3000 | 10 to 100
14 | CN1CC[C@@H](Nc2cccn3c(SC(F)(F)F)c(-c4noc(CNC(=O)c5ccc(S(C)(=O)=O)cc5)n4)cc23)[C@@H](F)C1 [Example 42, N-{[3-(8-{[(3S,4R)-3-fluoro-1-methylpiperidin-4-yl]amino}-3-[(trifluoromethyl)sulfanyl]indolizin-2-yl)-1,2,4-oxadiazol-5-yl]methyl}-4-methanesulfonylbenzamide] | < 750 | < 750 | < 750 | < 10
15 | CN1CC[C@@H](Nc2cccn3c(SC(F)(F)F)c(-c4noc(CNC(=O)C#CC5(C)CC5)n4)cc23)[C@@H](F)C1 [Example 31, N-{[3-(8-{[(3S,4R)-3-fluoro-1-methylpiperidin-4-yl]amino}-3-[(trifluoromethyl)sulfanyl]indolizin-2-yl)-1,2,4-oxadiazol-5-yl]methyl}-3-(1-methylcyclopropyl)prop-2-ynamide] | < 750 | < 750 | < 750 | < 10
16 | COc1ccc2cc(C(=O)NCc3nc(-c4cc5c(N[C@@H]6CCN(C)C[C@@H]6F)cccn5c4SC(F)(F)F)no3)n(C)c2c1 [Example 35, N-{[3-(8-{[(3S,4R)-3-fluoro-1-methylpiperidin-4-yl]amino}-3-[(trifluoromethyl)sulfanyl]indolizin-2-yl)-1,2,4-oxadiazol-5-yl]methyl}-6-methoxy-1-methylindole-2-carboxamide] | 1500 to 3000 | 1500 to 3000 | ≥ 3000 | 10 to 100
17 | CN1CC[C@@H](Nc2cccn3c(SC(F)(F)F)c(-c4noc(CNC(=O)c5cnn(C(C)(C)C)c5)n4)cc23)[C@@H](F)C1 [Example 2, 1-tert-butyl-N-{[3-(8-{[(3S,4R)-3-fluoro-1-methylpiperidin-4-yl]amino}-3-[(trifluoromethyl)sulfanyl]indolizin-2-yl)-1,2,4-oxadiazol-5-yl]methyl}pyrazole-4-carboxamide] | < 750 | < 750 | < 750 | < 10
